Here are results for two compounds from patent US8236778B2, “Synergistic 5′-methylthioadenosine combinations” (Proyecto de Biomedicina Cima, S.L., priority 2008, dated 2012).

The test system of one series is acute EAE model. Kind of series: EAE disease severity score in MS animal model (acute EAE model, rMOG35-55 immunization). The series is classed as in vivo. To be noted: female C57/bl6 mice, daily i.p. treatment starting after immunization, followed to day 31; (27.84 mg/kg), GA 0.1 mg/mouse/day; n=5 per group.
Another series deals with MS relapses. To be noted: current GA therapy; cited from earlier work.
Series [1] concerns acute Experimental Autoimmune Encephalomyelitis (EAE). The note with it: model of Multiple Sclerosis; cited from earlier work.
Series [2] concerns Chronic-Relapsing EAE (RR-EAE). To be noted: model of Multiple Sclerosis; cited from earlier work.
For series [3] the following is noted: wide range of doses; cited from earlier work.

As to “L-glutamic acid polymer with L-alanine, L-lysine and L-tyrosine, acetate (salt) [GA, reference compound]”, in the series with acute EAE model, the “course / severity of the disease (EAE)” value is “course of the disease with intermediate intensity”. The “efficacy in preventing new relapses in MS” value in the series on MS relapses is given as “not more than 25%”.
`CSC[C@H]1O[C@@H](n2cnc3c(N)ncnc32)[C@H](O)[C@@H]1O` [MTA, 5′-methylthioadenosine]: in the series with acute EAE model, the “course / severity of the disease (EAE)” value was “course of the disease with intermediate intensity”. Also, the “effect on acute EAE” value in series [1] is given as “capable of preventing”. Further, in series [2], the “effect on Chronic-Relapsing EAE” value is on record as “ameliorates”. Moreover, the side effects result in series [3] is listed as “without side effects”.
